Here are results for 22 compounds from EP3154958B1, “PHOSPHATIDYLINOSITOL 3-KINASE INHIBITORS” (Gilead Sciences, Inc., priority 2014, dated 2015).

Common to all, as to type: biochemical
In one assay the target is T1, PI3Kβ (Homo sapiens, UniProt P42338).
T1 construct: made in house
Nature of the assay: TR-FRET enzymatic activity assay, PI3Kβ. As to conditions: recombinant heterodimeric PI3Kβ 25-50 pM, 2× Km ATP, 30 minutes at 25°C. A digest of the protocol: (§1)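 Enzymatic activity against the PI3K isoforms was measured using a time-resolved fluorescence resonance energy transfer (TR-FRET) assay.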

The next assay deals with T2, PI3Kδ (Homo sapiens, UniProt O00329).
T2 construct: made in house
Nature of the assay: TR-FRET enzymatic activity assay, PI3Kδ. As to conditions: recombinant heterodimeric PI3Kδ 25-50 pM, 2× Km ATP, 30 minutes at 25°C. A digest of the protocol:
as §1

The target of another assay is T3, PI3Kγ (Homo sapiens, UniProt P48736).
T3 construct: made in house
Description: TR-FRET enzymatic activity assay, PI3Kγ. As to conditions: recombinant heterodimeric PI3Kγ 2 nM, 2× Km ATP, 30 minutes at 25°C. The method in brief: as §1

Some results are limits rather than exact numbers.

T3 sequence (P48736 whole entry): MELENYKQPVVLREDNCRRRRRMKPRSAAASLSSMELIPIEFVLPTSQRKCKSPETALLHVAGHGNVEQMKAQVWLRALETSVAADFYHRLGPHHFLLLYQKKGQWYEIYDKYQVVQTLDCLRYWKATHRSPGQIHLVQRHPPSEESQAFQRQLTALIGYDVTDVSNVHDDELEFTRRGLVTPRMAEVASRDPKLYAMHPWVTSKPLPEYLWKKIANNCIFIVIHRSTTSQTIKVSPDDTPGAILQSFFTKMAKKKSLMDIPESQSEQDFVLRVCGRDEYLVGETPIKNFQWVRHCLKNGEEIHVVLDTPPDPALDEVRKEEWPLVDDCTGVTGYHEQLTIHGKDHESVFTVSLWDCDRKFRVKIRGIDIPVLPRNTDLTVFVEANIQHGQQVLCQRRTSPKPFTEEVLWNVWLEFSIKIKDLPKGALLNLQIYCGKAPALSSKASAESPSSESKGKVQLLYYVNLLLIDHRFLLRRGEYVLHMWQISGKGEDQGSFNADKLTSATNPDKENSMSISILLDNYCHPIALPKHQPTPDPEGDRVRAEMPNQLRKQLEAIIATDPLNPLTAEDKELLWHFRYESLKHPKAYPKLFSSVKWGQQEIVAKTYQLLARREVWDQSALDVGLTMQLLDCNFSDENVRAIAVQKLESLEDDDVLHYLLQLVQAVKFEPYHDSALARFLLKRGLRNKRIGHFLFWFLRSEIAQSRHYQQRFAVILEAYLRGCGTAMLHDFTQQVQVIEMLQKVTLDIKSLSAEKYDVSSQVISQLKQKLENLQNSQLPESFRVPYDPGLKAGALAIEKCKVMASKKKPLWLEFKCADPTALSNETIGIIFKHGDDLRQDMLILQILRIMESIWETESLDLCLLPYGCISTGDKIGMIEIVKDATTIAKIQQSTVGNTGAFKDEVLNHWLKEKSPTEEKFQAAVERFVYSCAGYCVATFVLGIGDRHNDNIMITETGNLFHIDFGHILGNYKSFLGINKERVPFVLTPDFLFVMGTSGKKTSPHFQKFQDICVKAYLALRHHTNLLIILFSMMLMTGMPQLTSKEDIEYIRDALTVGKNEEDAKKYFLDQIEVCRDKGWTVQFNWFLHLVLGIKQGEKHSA
T3 sequence (Q8WYR1 whole entry partner): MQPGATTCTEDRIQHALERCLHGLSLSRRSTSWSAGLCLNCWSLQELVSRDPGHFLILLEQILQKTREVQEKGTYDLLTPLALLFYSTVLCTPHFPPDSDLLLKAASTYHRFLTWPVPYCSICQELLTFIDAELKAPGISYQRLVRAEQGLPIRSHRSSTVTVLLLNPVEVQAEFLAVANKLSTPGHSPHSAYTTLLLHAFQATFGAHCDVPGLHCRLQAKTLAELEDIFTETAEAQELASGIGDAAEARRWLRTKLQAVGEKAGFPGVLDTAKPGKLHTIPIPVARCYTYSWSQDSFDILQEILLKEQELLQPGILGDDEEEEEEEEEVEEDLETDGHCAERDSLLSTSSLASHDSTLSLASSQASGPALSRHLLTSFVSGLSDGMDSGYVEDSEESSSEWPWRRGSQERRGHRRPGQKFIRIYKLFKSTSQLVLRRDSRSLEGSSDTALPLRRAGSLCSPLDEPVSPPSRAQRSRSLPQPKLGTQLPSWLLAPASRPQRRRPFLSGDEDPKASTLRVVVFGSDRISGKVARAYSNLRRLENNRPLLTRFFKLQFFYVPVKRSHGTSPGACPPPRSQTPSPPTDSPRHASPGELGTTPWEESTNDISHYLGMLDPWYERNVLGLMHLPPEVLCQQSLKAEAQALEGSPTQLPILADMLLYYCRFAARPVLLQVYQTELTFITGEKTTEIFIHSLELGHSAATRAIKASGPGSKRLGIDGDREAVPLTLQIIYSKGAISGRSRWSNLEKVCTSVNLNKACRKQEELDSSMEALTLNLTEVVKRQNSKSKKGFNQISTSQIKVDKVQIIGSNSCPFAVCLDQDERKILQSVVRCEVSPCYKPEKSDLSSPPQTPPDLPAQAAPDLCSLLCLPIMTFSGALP
T2 sequence (O00329 whole entry): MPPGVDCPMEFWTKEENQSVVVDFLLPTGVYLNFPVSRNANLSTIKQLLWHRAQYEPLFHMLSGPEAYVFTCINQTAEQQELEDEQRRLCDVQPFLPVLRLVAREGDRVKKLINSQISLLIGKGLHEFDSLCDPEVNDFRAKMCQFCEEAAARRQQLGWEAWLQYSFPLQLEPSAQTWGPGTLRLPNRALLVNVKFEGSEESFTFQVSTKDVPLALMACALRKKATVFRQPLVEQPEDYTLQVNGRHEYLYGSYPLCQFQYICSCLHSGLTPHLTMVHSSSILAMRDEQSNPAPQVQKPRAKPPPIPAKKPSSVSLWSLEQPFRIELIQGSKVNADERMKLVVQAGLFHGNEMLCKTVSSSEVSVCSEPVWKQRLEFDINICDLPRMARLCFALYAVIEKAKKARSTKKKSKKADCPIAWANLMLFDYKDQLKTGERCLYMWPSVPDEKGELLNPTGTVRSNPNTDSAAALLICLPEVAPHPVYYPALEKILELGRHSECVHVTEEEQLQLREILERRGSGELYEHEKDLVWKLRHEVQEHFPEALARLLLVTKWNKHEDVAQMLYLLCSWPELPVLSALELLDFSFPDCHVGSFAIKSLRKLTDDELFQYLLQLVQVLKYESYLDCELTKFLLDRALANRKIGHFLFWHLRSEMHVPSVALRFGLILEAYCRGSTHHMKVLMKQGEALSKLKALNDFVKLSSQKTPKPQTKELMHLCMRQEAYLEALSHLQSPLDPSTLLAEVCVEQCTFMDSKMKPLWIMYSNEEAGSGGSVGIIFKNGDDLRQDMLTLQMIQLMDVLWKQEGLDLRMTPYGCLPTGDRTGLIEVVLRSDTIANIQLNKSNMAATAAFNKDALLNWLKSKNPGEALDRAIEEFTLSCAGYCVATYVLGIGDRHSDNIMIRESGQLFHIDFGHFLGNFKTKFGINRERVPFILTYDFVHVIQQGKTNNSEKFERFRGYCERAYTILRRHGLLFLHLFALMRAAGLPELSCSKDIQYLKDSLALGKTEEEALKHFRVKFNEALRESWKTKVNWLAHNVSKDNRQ
T2 sequence (P27986 whole entry partner): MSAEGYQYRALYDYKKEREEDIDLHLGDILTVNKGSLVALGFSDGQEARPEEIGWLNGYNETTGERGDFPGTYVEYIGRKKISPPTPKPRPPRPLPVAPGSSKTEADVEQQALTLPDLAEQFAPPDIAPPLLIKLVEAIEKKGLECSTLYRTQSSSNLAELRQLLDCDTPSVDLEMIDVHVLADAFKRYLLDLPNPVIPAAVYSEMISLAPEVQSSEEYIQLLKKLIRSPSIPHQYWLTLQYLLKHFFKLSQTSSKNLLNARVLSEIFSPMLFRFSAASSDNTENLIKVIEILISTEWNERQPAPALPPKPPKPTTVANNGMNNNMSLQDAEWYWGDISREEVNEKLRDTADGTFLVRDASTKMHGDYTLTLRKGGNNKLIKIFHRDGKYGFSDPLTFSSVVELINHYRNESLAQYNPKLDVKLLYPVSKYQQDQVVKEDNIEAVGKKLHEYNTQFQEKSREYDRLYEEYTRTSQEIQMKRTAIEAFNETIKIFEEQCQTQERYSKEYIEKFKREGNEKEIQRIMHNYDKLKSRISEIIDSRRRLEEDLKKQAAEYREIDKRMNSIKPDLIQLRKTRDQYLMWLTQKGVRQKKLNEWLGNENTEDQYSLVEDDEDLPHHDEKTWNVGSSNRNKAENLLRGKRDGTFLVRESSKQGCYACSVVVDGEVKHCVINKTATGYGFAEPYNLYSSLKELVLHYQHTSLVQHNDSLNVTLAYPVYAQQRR
T1 sequence (P42338 whole entry): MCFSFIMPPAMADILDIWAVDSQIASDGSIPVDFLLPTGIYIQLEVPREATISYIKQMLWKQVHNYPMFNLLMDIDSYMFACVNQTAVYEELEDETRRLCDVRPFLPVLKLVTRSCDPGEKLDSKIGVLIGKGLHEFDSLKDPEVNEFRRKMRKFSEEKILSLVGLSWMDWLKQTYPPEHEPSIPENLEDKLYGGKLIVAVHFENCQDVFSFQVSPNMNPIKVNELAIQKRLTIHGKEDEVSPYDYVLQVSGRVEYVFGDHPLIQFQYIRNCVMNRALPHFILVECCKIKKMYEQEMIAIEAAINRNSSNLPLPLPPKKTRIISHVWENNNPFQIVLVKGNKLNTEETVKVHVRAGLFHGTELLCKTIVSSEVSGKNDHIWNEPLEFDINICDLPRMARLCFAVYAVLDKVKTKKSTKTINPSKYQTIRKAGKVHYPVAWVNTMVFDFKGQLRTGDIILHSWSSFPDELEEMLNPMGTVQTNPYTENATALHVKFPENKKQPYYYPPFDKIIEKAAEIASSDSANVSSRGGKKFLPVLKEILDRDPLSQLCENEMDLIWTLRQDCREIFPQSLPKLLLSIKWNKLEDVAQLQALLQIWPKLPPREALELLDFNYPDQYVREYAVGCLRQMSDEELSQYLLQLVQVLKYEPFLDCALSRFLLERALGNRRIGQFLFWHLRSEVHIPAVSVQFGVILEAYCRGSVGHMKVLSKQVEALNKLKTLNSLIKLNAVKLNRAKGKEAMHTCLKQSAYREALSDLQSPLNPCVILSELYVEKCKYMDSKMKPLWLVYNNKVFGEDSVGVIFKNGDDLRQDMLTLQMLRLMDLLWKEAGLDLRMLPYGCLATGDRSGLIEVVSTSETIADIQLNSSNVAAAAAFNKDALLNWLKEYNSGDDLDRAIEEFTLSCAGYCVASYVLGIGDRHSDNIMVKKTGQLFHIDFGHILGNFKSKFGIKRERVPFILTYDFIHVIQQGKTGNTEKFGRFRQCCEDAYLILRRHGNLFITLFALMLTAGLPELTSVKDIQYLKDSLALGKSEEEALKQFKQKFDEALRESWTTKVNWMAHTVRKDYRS
T1 sequence (P27986 whole entry partner): as the sequence (P27986 whole entry partner) above

`CC[C@H](Nc1nc(N)nc(N)c1C#N)c1nc2c(F)ccc(Cl)c2c(=O)n1N1CCN(Cc2ccccc2)CC1` [Compound 95, (S)-2,4-diamino-6-((1-(3-(4-benzylpiperazin-1-yl)-5-chloro-8-fluoro-4-oxo-3,4-dihydroquinazolin-2-yl)propyl)amino)pyrimidine-5-carbonitrile]: the figures for the IC50 at PI3Kβ, on PI3Kδ and at PI3Kγ were 96 nM, 38 nM and 2000 nM, respectively.

Turning to `C[C@H](Nc1nc(N)nc(N)c1C#N)c1nc2cccc(Cl)c2c(=O)n1N1CCN(CCOC(C)(C)C)CC1` [Compound 96, (S)-2,4-diamino-6-((1-(3-(4-(2-(tert-butoxy)ethyl)piperazin-1-yl)-5-chloro-4-oxo-3,4-dihydroquinazolin-2-yl)ethyl)amino)pyrimidine-5-carbonitrile], the IC50 on PI3Kβ is 10 nM; on PI3Kδ it was 15 nM; on PI3Kγ it was 1000 nM.

For `C[C@H](Nc1nc(N)nc(N)c1C#N)c1nc2cccc(Cl)c2c(=O)n1N1CCN(C2COC2)CC1` [Compound 97, (S)-2,4-diamino-6-((1-(5-chloro-3-(4-(oxetan-3-yl)piperazin-1-yl)-4-oxo-3,4-dihydroquinazolin-2-yl)ethyl)amino)pyrimidine-5-carbonitrile], the IC50 was determined as 93 nM on PI3Kβ, 15 nM at PI3Kδ and 460 nM at PI3Kγ.

Regarding `C[C@H](Nc1nc(N)nc(N)c1C#N)c1nc2cccc(Cl)c2c(=O)n1N1CCN(CC(C)(C)C)CC1` [Compound 98, (S)-2,4-diamino-6-((1-(5-chloro-3-(4-neopentylpiperazin-1-yl)-4-oxo-3,4-dihydroquinazolin-2-yl)ethyl)amino)pyrimidine-5-carbonitrile], the IC50 on PI3Kβ was determined as 4 nM; at PI3Kδ it was 5 nM; at PI3Kγ, 1200 nM.

Take `C[C@H](Nc1nc(N)nc(N)c1C#N)c1nc2cccc(Cl)c2c(=O)n1C1CCN(CC(F)F)CC1` [Compound 99, (S)-2,4-diamino-6-((1-(5-chloro-3-(1-(2,2-difluoroethyl)piperidin-4-yl)-4-oxo-3,4-dihydroquinazolin-2-yl)ethyl)amino)pyrimidine-5-carbonitrile]: the IC50 on PI3Kβ turned out to be 720 nM; at PI3Kδ, 14 nM; at PI3Kγ, 1600 nM.

Turning to `C[C@H](Nc1nc(N)nc(N)c1C#N)c1nc2cccc(Cl)c2c(=O)n1C1CCN(CC(F)(F)F)CC1` [Compound 100, (S)-2,4-diamino-6-((1-(5-chloro-4-oxo-3-(1-(2,2,2-trifluoroethyl)piperidin-4-yl)-3,4-dihydroquinazolin-2-yl)ethyl)amino)pyrimidine-5-carbonitrile], the figures for the IC50 on PI3Kβ, on PI3Kδ and at PI3Kγ were 970 nM, 15 nM and 1300 nM, respectively.

With `C[C@H](Nc1nc(N)nc(N)c1C#N)c1nc2cccc(Cl)c2c(=O)n1C1CCN(Cc2ccccc2)CC1` [Compound 101, (S)-2,4-diamino-6-((1-(3-(1-benzylpiperidin-4-yl)-5-chloro-4-oxo-3,4-dihydroquinazolin-2-yl)ethyl)amino)pyrimidine-5-carbonitrile], the results for the half-maximal inhibitory concentration (IC50) at PI3Kβ, at PI3Kδ and on PI3Kγ were 44 nM, 21 nM and 4200 nM, respectively.

Regarding `N#Cc1c(N)ncnc1N[C@H](c1nc2cccc(Cl)c2c(=O)n1N1CCNCC1)C1CC1` [Compound 102, (S)-4-amino-6-(((5-chloro-4-oxo-3-(piperazin-1-yl)-3,4-dihydroquinazolin-2-yl)(cyclopropyl)methyl)amino)pyrimidine-5-carbonitrile], the IC50 is 57 nM on PI3Kβ, 2 nM on PI3Kδ and above 10000 nM at PI3Kγ.

Regarding `C[C@H](Nc1ncnc(N)c1C#N)c1nc2cccc(Cl)c2c(=O)n1C1CCN(CC(F)(F)F)CC1` [Compound 103, (S)-4-amino-6-((1-(5-chloro-4-oxo-3-(1-(2,2,2-trifluoroethyl)piperidin-4-yl)-3,4-dihydroquinazolin-2-yl)ethyl)amino)pyrimidine-5-carbonitrile], the IC50 was 2200 nM on PI3Kβ, 10 nM at PI3Kδ and above 10000 nM at PI3Kγ.

For `C[C@H](Nc1nc(N)nc(N)c1Cl)c1nc2cccc(Cl)c2c(=O)n1C1CCN(CC(F)(F)F)CC1` [Compound 104, (S)-5-chloro-2-(1-((2,6-diamino-5-chloropyrimidin-4-yl)amino)ethyl)-3-(1-(2,2,2-trifluoroethyl)piperidin-4-yl)quinazolin-4(3H)-one], the values for the IC50 on PI3Kβ, on PI3Kδ and at PI3Kγ were 10000 nM, 260 nM and above 10000 nM, respectively.

As for `C[C@H](Nc1ncnc(N)c1C#N)c1nc2cccc(Cl)c2c(=O)n1C1CCN(CC(F)F)CC1` [Compound 105, (S)-4-amino-6-((1-(5-chloro-3-(1-(2,2-difluoroethyl)piperidin-4-yl)-4-oxo-3,4-dihydroquinazolin-2-yl)ethyl)amino)pyrimidine-5-carbonitrile], the IC50 at PI3Kβ is 1900 nM; on PI3Kδ, 9 nM; at PI3Kγ, above 10000 nM.

Take `Cc1nc(N)nc(N[C@@H](C)c2nc3cccc(Cl)c3c(=O)n2C2CCN(CC(F)(F)F)CC2)c1C#N` [Compound 106, (S)-2-amino-4-((1-(5-chloro-4-oxo-3-(1-(2,2,2-trifluoroethyl)piperidin-4-yl)-3,4-dihydroquinazolin-2-yl)ethyl)amino)-6-methylpyrimidine-5-carbonitrile]: the IC50 at PI3Kβ came out at 260 nM; at PI3Kδ it was 11 nM; at PI3Kγ, 710 nM.

As to `C[C@H](Nc1nc(N)nc(N)c1C#N)c1nc2cccc(Cl)c2c(=O)n1N1CCN(CC(F)(F)F)CC1` [Compound 107, (S)-2,4-diamino-6-((1-(5-chloro-4-oxo-3-(4-(2,2,2-trifluoroethyl)piperazin-1-yl)-3,4-dihydroquinazolin-2-yl)ethyl)amino)pyrimidine-5-carbonitrile], the IC50 turned out to be 520 nM on PI3Kβ, 16 nM on PI3Kδ and 630 nM on PI3Kγ.

`C[C@H](Nc1nc(N)nc(N)c1Cl)c1nc2cccc(Cl)c2c(=O)n1N1CCN(CC(F)(F)F)CC1` [Compound 108, (S)-5-chloro-2-(1-((2,6-diamino-5-chloropyrimidin-4-yl)amino)ethyl)-3-(4-(2,2,2-trifluoroethyl)piperazin-1-yl)quinazolin-4(3H)-one]: the IC50 on PI3Kβ is 6100 nM; on PI3Kδ, 170 nM; on PI3Kγ it was above 10000 nM.

With `Cc1nc(N)nc(N[C@@H](C)c2nc3cccc(Cl)c3c(=O)n2N2CCN(CC(F)(F)F)CC2)c1C#N` [Compound 109, (S)-2-amino-4-((1-(5-chloro-4-oxo-3-(4-(2,2,2-trifluoroethyl)piperazin-1-yl)-3,4-dihydroquinazolin-2-yl)ethyl)amino)-6-methylpyrimidine-5-carbonitrile], the values for the half-inhibitory concentration (IC50) on PI3Kβ, at PI3Kδ and on PI3Kγ were 290 nM, 14 nM and 660 nM, respectively.

`C[C@H](Nc1nc(N)nc(Cl)c1C#N)c1nc2cccc(Cl)c2c(=O)n1N1CCN(CC(F)(F)F)CC1` [Compound 110, (S)-2-amino-4-chloro-6-((1-(5-chloro-4-oxo-3-(4-(2,2,2-trifluoroethyl)piperazin-1-yl)-3,4-dihydroquinazolin-2-yl)ethyl)amino)pyrimidine-5-carbonitrile]: the IC50 came to 1400 nM at PI3Kβ, 41 nM on PI3Kδ and 2800 nM at PI3Kγ.

For the compound `C[C@H](Nc1nc(N)nc(N)c1C#N)c1nc2cccc(Cl)c2c(=O)n1N1CCN(CC(F)F)CC1` [Compound 111, (S)-2,4-diamino-6-((1-(5-chloro-3-(4-(2,2-difluoroethyl)piperazin-1-yl)-4-oxo-3,4-dihydroquinazolin-2-yl)ethyl)amino)pyrimidine-5-carbonitrile], the concentration for half-maximal inhibition (IC50) at PI3Kβ worked out at 530 nM; at PI3Kδ, 24 nM; on PI3Kγ, 730 nM.

With `C[C@H](Nc1nc(N)nc(N)c1Cl)c1nc2cccc(Cl)c2c(=O)n1N1CCN(CC(F)F)CC1` [Compound 112, (S)-5-chloro-2-(1-((2,6-diamino-5-chloropyrimidin-4-yl)amino)ethyl)-3-(4-(2,2-difluoroethyl)piperazin-1-yl)quinazolin-4(3H)-one], the IC50 on PI3Kβ is 7800 nM; at PI3Kδ, 280 nM; on PI3Kγ it was above 10000 nM.

In the case of `C[C@H](Nc1nc(N)nc(Cl)c1C#N)c1nc2cccc(Cl)c2c(=O)n1N1CCN(CC(F)F)CC1` [Compound 113, (S)-2-amino-4-chloro-6-((1-(5-chloro-3-(4-(2,2-difluoroethyl)piperazin-1-yl)-4-oxo-3,4-dihydroquinazolin-2-yl)ethyl)amino)pyrimidine-5-carbonitrile], the figures for the IC50 on PI3Kβ, on PI3Kδ and on PI3Kγ were 600 nM, 42 nM and 1300 nM, respectively.

For `Cc1nc(N)nc(N[C@@H](C)c2nc3cccc(Cl)c3c(=O)n2N2CCN(CC(F)F)CC2)c1C#N` [Compound 114, (S)-2-amino-4-((1-(5-chloro-3-(4-(2,2-difluoroethyl)piperazin-1-yl)-4-oxo-3,4-dihydroquinazolin-2-yl)ethyl)amino)-6-methylpyrimidine-5-carbonitrile], the IC50 was 300 nM on PI3Kβ, 26 nM at PI3Kδ and 560 nM on PI3Kγ.

Regarding `C[C@H](Nc1ncnc2scnc12)c1nc2cccc(Cl)c2c(=O)n1N1CCN(CC(F)F)CC1` [Compound 115, (S)-5-chloro-3-(4-(2,2-difluoroethyl)piperazin-1-yl)-2-(1-(thiazolo[5,4-d]pyrimidin-7-ylamino)ethyl)quinazolin-4(3H)-one], the IC50 on PI3Kβ amounted to 1800 nM; at PI3Kδ it was 37 nM; at PI3Kγ it was 5300 nM.

In the case of `C[C@H](Nc1nc(N)nc(N)c1C#N)c1nc2c(F)ccc(Cl)c2c(=O)n1N1CCN(Cc2ccccc2)CC1` [Compound 116, (S)-2,4-diamino-6-((1-(3-(4-benzylpiperazin-1-yl)-5-chloro-8-fluoro-4-oxo-3,4-dihydroquinazolin-2-yl)ethyl)amino)pyrimidine-5-carbonitrile], the IC50 at PI3Kβ stood at 13 nM; on PI3Kδ, 15 nM; at PI3Kγ, 470 nM.

Usually IC50 stands for the concentration at which inhibition is half-maximal.
